Key:
Aromatase [1] = molecular target: T1, Aromatase (Homo sapiens, UniProt P11511); assay: Inhibition of aromatase (unknown origin)
T1 sequence (P11511 whole entry): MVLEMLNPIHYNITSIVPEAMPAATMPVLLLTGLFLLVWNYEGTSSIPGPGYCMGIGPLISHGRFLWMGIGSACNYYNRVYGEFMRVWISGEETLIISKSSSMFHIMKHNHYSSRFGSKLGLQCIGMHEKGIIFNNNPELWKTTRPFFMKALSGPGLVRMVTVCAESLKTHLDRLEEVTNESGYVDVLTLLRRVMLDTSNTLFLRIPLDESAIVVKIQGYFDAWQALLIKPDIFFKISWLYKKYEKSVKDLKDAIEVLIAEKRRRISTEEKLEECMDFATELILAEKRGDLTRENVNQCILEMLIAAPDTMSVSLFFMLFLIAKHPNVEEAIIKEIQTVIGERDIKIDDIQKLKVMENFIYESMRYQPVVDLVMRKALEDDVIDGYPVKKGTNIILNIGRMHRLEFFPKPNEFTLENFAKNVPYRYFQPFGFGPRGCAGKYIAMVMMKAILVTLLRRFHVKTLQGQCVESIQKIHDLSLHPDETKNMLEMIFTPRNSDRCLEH

[2] = Cytotoxicity against human HuCCa1 cells by MTT assay; format: functional, cell-based, HuCC-A1
A549 = assay: Cytotoxicity against human A549 cells by MTT assay; format: functional, cell-based
HepG2 = assay: Cytotoxicity against human HepG2 cells by MTT assay; format: functional, cell-based
[3] = Cytotoxicity against human MOLT3 cells by XTT assay; format: functional, cell-based; details: MOLT-3
Aromatase [4] = molecular target: T1, Aromatase; assay: Inhibition of human recombinant aromatase expressed in baculovirus infected insect cells using O-benzylfluorescein benzyl ester as substrate after 30 mins
[5] = Homo sapiens, HuCC-A1, read-out: IC50
[6] = Homo sapiens, A549, read-out: IC50
[7] = Homo sapiens, HepG2, read-out: IC50

Row | SMILES | IC50 (Aromatase [1]) [µM] | IC50 [2, 5] [µM] | IC50 (A549; [6]) [µM] | IC50 (HepG2; hepg2) | IC50 [3] [µM] | IC50 (Aromatase [4]) [µM] | IC50 ([2]; hucc-a1) | IC50 (HepG2; [7]) [µM] | IC50 (A549; a549)
1 | COc1cc(O)c([C@@H]2C[C@@H](c3ccccc3)Oc3c(C=O)c(O)cc(O)c32)c(O)c1C(=O)/C=C/c1ccccc1 | 3.3 | – | – | – | – | – | – | – | –
2 | COc1cc(O)c([C@H]2C[C@@H](c3ccccc3)Oc3c(C=O)c(O)cc(O)c32)c(O)c1C(=O)/C=C/c1ccccc1 | 1.8 | – | – | – | – | – | – | – | –
3 | COc1cc(O)c(C=O)c2c1[C@H](O)C[C@@H](c1ccccc1)O2 | – | 130 | 147 | Not Active | 24.3 | 0.04 | – | – | –
4 | COc1c(C)c(OC)c2c(c1C=O)O[C@H](c1ccccc1)C[C@H]2O | – | – | 137 | – | 57.4 | 1.01 | Not Active | 99.6 | –
5 | COc1c(C)c(OC)c2c(c1C)O[C@H](c1ccccc1)C[C@H]2O | – | – | – | – | 63.5 | 10.7 | Not Active | 135 | Not Active
6 | COc1cc(O)c(C=O)c2c1[C@H](OC)C[C@@H](c1ccccc1)O2 | – | 140 | – | Not Active | 41.3 | 0.09 | – | – | Not Active
7 | COc1c(C)c(O)c(C=O)c2c1[C@H](O)C[C@@H](c1ccccc1)O2 | – | 143 | – | – | 29.8 | 0.08 | – | 143 | Not Active
8 | COc1c(C)c(O)c(C=O)c2c1[C@H](OC)C[C@@H](c1ccccc1)O2 | – | 125 | 104 | – | 28.5 | 0.15 | – | 145 | –
9 | COc1cc(O)c2c(c1C)O[C@H](c1ccccc1)CC2=O | – | – | – | – | – | 0.6 | – | – | –
10 | COc1c(C)c(O)c2c(c1C)O[C@H](c1ccccc1)CC2=O | – | – | – | Not Active | 72 | > 12.5 | Not Active | – | Not Active
11 | COc1cccc2c1C(=O)c1c(O)c3c(c(O)c1C2=O)C[C@@](O)(C(=O)CO)C[C@@H]3O[C@H]1C[C@H](N)[C@H](O)[C@H](C)O1 [DOXORUBICIN] | – | 1.1 | – | – | – | – | – | – | –
12 | COc1cc([C@@H]2c3cc4c(cc3[C@@H](O[C@@H]3O[C@@H]5CO[C@@H](C)O[C@H]5[C@H](O)[C@H]3O)[C@H]3COC(=O)[C@H]23)OCO4)cc(OC)c1O [ETOPOSIDE] | – | – | – | – | 0.03 | – | – | 22.1 | –
13 | O=C1C[C@@H](c2ccccc2)Oc2cc(O)cc(O)c21 [PINOCEMBRIN] | 0.9 | – | – | – | – | – | – | – | –
